Measured values: ChEMBL document CHEMBL5380831, “Azolylpyrimidinediols as Novel Structural Scaffolds of DNA-Groove Binders against Intractable Acinetobacter baumannii” (J Med Chem, 2023)
Converted amounts (≈) assume the structure as drawn. The source made the active and inactive calls. No cut-off for these calls is given here.

How the values were obtained:
[1] = Hemolytic activity in human RBC at 512 times MIC measured after 8 hrs by absorbance based assay relative to control; assay type: toxicity, cell-based, Erythrocyte; conditions: red blood cells (erythrocytes), read-out: Activity
Calf thymus DNA [2] = test: Binding affinity to calf thymus DNA incubated overnight in presence of sodium chloride by sodium ion-quenching assay; assay type: nucleic-acid assay; conditions: Bos taurus
Acinetobacter baumannii = test: Antibacterial activity against Acinetobacter baumannii assessed as decrease in LDH activity incubated for 6 hrs by LDH assay; assay type: functional, organism-based
[3] = Cytotoxicity against HEK293T cells assessed as cell viability at 0.256 mmol/L measured after 24 hrs by MTT assay relative to control; assay type: toxicity, cell-based, HEK-293T; conditions: human, read-out: Activity
Staphylococcus aureus = test: Antibacterial activity against Staphylococcus aureus assessed as bacterial growth inhibition incubated for 24 hrs by broth microdilution method; assay type: functional
[4] = AUMC (0 to t) in Kunming mouse at 10 mg/kg, iv measured upto 24 hrs by LC-MS analysis; assay type: ADME, organism-based; conditions: in vivo
Erythrocyte = test: Hemolytic activity against human RBC assessed as change in cell morphology at 512 times MIC measured after 8 hrs by microscopic analysis; assay type: toxicity, cell-based
Calf thymus DNA [5] = test: Induction of calf thymus DNA cleavage at 0.05 mmol/L incubated for 6 hrs in presence of Zn2+ by agarose gel electrophoresis method; assay type: nucleic-acid assay; conditions: Bos taurus
Escherichia coli = test: Antibacterial activity against Escherichia coli ATCC 25922 assessed as bacterial growth inhibition incubated for 24 hrs by broth microdilution method; assay type: functional
Calf thymus DNA [6] = test: Induction of calf thymus DNA cleavage at 0.05 mmol/L incubated for 6 hrs in presence of Zn(NO3)2 by agarose gel electrophoresis method; assay type: nucleic-acid assay; conditions: Bos taurus
[7] = MRT (0 to infinity) in Kunming mouse at 10 mg/kg, po measured upto 24 hrs by LC-MS analysis; assay type: ADME, organism-based; conditions: in vivo
Calf thymus DNA [8] = test: Induction of calf thymus DNA cleavage at 0.05 mmol/L incubated for 6 hrs by agarose gel electrophoresis method; assay type: nucleic-acid assay; conditions: Bos taurus
[9] = Cmax in Kunming mouse at 10 mg/kg, po measured upto 24 hrs by LC-MS analysis; assay type: ADME, organism-based; parameters: time < 24 hrs, dose 10 mg/kg, route po; conditions: in vivo

OCCN(CCO)c1nccc(-n2cncn2)n1
hemolysis at 8 h, 512 times MIC [1]: 1.5%
Activity (Calf thymus DNA [2]): Active
Activity (Acinetobacter baumannii): Dose-Dependent Effect
viability at 24 h, 256 µM [3]: 80%
MIC (Staphylococcus aureus): 512 µM (≈ 128 µg/mL)
AUMCt [4]: 5446 hr.hr.ng/ml
Activity (Erythrocyte): Non-Toxic
Activity (Calf thymus DNA [5]): inactive
MIC (Escherichia coli): 1 µM (≈ 0.25 µg/mL)
Activity (Calf thymus DNA [6]): inactive
MRT inf [7]: 4.67 h
Activity (Calf thymus DNA [8]): inactive
Cmax [9]: 2.13 µg/mL
